Experimental data from US20090054376A1, “BENZOFURAN DERIVATIVES WITH THERAPEUTIC ACTIVITIES” (Pharmos Corporation, priority 2005, published 2009).
pEC50: −log10 of the molar value.

Key:
Human CB2 Receptor = target: T1, Human CB2 Receptor (Homo sapiens, UniProt P34972); assay: [35S]GTPγS-binding assay, hCB2; type: biochemical; conditions: GTPγS, Human CB2 Receptor, NB = no binding
T1 construct: host or cells: Sf9 or HEK-293 cells (membranes)

[1] = system: mechanical allodyna after chronic constriction of the sciatic nerve; assay: Neuropathic pain, chronic constriction of the sciatic nerve (CCI); type: in vivo, Male Sprague Dawley rats; conditions: four and a half hour after administration
Experimental: The analgesic activity of compounds of the invention was assessed in a chronic constriction induced (CCI) model of neuropathic pain. […] The development of mechanical allodyna was monitored using a Dynamic Plantar Sesthesiomether as described in Example 18. This apparatus is an automated version of the classical von Frey filaments' test.
Pre-surgery baseline values were ascertained as the mean of 2 pre-surgery values. Once the baseline values are established, the animals were surgically prepared by constricting the right sciatic nerve with 4-0 chromic cat gut loose ligatures. On day 11 post-operation, the animals that have developed mechanical allodyna were arbitrarily allocated to the various treatment groups based on the pre-surgery values.
The design was randomized, performed in a masked fashion as to whether drug or vehicle is being given. Male Sprague Dawley rats (average body weight 240 g, Harlan, Israel), were allowed to acclimatize to the behavioral testing equipment prior to testing. On the testing day, the animals, at least six per treatment group, were administered the compounds and controls at a volume dosage of 5 ml/kg. Fifteen minutes later, the mechanical stimulus was applied and the force, measured in grams, causing a withdrawal response for each of the ipsilateral and contralateral hind paws was evaluated.
Results are expressed as mean±SEM for each treatment group and the differences among those groups are analyzed by analysis of variance (ANOVA) followed by post-hoc Tukey's test. A value of p<0.05 is considered to be statistically significant. Thereafter the difference in the force to be applied to the injured paw as compared to the normal paw was calculated. Δforce, expressed in grams, was measured at baseline and 1 and 4.5 hours after treatment.

T1 sequence (P34972 whole entry): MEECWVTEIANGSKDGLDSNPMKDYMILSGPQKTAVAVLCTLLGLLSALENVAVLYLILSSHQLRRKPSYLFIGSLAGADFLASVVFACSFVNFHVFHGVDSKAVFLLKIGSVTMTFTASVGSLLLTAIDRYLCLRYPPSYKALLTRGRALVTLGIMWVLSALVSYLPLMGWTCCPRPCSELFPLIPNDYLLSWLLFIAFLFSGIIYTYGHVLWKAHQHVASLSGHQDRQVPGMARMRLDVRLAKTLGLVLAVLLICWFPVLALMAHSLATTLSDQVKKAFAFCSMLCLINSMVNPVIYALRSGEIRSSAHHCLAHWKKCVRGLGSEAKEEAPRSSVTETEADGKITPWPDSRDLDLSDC

Question: What does the source list for CCCCCCC(C)(C)c1cc(O)c2c(c1)OC1C(O)CCCCC21 (stereo not drawn) [Compound C7S-2, 2-(1,1-dimethylheptyl)-5,6,7,8,9,9a-hexahydro-4bH-10-oxa-benzo[α]azulen-4,9-diol]?
Answer: pEC50 (Human CB2 Receptor): 6.64; Emax (Human CB2 Receptor; upper plateau of curve): 26%; inhibition of the pain behavior (expressed in Δforce) as compared to baseline ([1]; 0.005 mg/kg i.v.): 58%; inhibition of the pain behavior (expressed in Δforce) as compared to baseline ([1]; 0.01 mg/kg i.v.): 67%; inhibition of the pain behavior (expressed in Δforce) as compared to baseline ([1]; 0.025 mg/kg i.v.): 84%; inhibition of the pain behavior (expressed in Δforce) as compared to baseline ([1]; 0.5 mg/kg i.v.): 92%
